Assay results: patent US5273989A, “3,5-disubstituted 2-isoxazolines and isoxazoles, agents containing them and their use” (Hoechst Aktiengesellschaft, priority 1990, dated 1993)
Where a name gives a salt, the structure may show the parent alone. Read-outs that look alike come from different tables or passages of the source.

Key:
[1] = test system: high affinity 3H-D-aspartate absorption, synaptic vesicles (synaptosomes) from rat cortex; experiment: "High affinity" absorption of 3H-aspartate in a vesicle preparation from rat brain; assay type: biochemical; conditions: preparation concentration 100 μM; relative to control values (100%)
Description: 1. "High affinity" absorption of ^3 H-aspartate in a vesicle preparation from rat brain.
Test principle: Fresh synaptic vesicles (synaptosomes) from rat cortex are incubated with buffer solution and ^3 H-D-aspartate and ^3 H-D-aspartate in the vesicles is measured. Preparations which in comparison to control synaptosomes increase the high affinity ^3 H-D-aspartate absorption and those which prevent the loss of ^3 H-D-aspartate by reliberation are regarded as particularly interesting.
Experimental protocol: The experiments for ^3 H-D-aspartate absorption were carried out by the method of Anand et al. (Biochem. Pharmacol., 35 (1986), 1055-1057). The synaptic vesicles were dissected out of cerebral cortex from male Sprague-Dawley rats. The preparations were tested at four concentrations as double samples in parallel with control samples containing buffer. The incubation medium (pH 7.4) contains: 1.2 mM KH2 PO4, 5 mM KCl, 5 mM pyruvate, 1.2 mM glucose, 1.2 mM MgCl2, 114 mM NaCl, 25 mM NaHCO3. For the non-specific ^3 H-D-aspartate absorption, NaCl was replaced by 114 mM choline chloride and NaHCO3 by 25 mM KHCO3. An aliquot of the vesicle suspension (about 25 μg/ml of test solution) was added to the test sample which was temperature controlled at 37° C. and aerated with Carbogen (5% CO2, 95% O2) and preincubated for 2 minutes. The three minutes incubation for the amino acid absorption was started by addition of 50 μl of ^3 H-D-aspartate (specific activity 25 Ci/mmol, 10 pmol/ml of test solution). The vesicles were separated from the incubation medium by filtration and additional washing of the adhering labeled amino acids using a Titertek cell harvester (Flow Laboratories, Meckenheim). The ^3 H-D-aspartate absorption was measured by means of a liquid scintillation counter (Canberra-Packard, Model 1500, Frankfurt).
The preparation activity is indicated in percent of the specific ^3 H-D-aspartate absorption, relative to control values (100%), in Table 3. Adenosine triphosphate (ATP) was used for comparison as the standard substance (see Table 3) and at 1 mM caused a 35% increase in the ^3 H-D-aspartate absorption.

[2] = test system: NMDA-stimulated 3H-acetylcholine release, striatum sections; experiment: Inhibition of NMDA-stimulated 3H-acetylcholine release from striatum sections of the rat brain; assay type: cell-based; conditions: preparation concentration 10 μM, 25 μmol/l NMDA stimulus, relative to control S2/S1, read-out: Inhibition of 3H-acetylcholine release from striatum sections, Inhibition (%)
Description: 2. Inhibition of ^3 H-acetylcholine release from striatum sections of the rat brain
Test principle: For the test, fresh striatum sections from rat brain were rinsed with buffer solution in a special chamber and the release of the tritium-labeled acetylcholine was measured after stimulation with NMDA. Preparations having NMDA-antagonist action inhibit acetylcholine release.
Experimental protocol: The superfusion experiments were carried out by the method of Wichman et al. (Naunyn-Schmied. Arch. Pharmacol., 338 (1988), 623-631). Rat brain sections, 0.5 mm thick, were preincubated for 30 min in 2 ml of incubation medium which contains 0.1 μmol/l of ^3 H-choline having a specific activity of 80 Ci/mmol. In each of 6 superfusion chambers, a section was transferred and superfused for 90 min at a rate of 1.5 ml/min. 2 min fraction of the superfusate were continuously collected. Each section was superfused twice with 25 μmol/l of NMDA of two minutes each time in order to stimulate the release of acetylcholine. The first stimulus (S1) takes place between the 54th and the 56th minute and the 2nd stimulus (S2) between the 76th and 78th minute. The incubation medium contained, in mmol/l: NaCl 118, KCl 4.8, CaCl2 1.2, MgSO4 1.2, NaHCO3 25, KH2 PO4 1.2 and glucose 10. The medium was saturated with Carbogen at 37° C. The pH was adjusted to 7.4 NMDA and the novel preparations to be tested were dissolved in superfusion medium. The superfusion was carried out using Mg^2+ -free medium. Tritium from the dissolved sections and from the superfusate was determined by liquid scintillation counting using a Packard® 1900 CA (Frankfurt) at a 50% efficiency.
Calculation of the Results
Basal release and NMDA-stimulated release for S1 and S2 were expressed in %/min of each fraction (Limberger et al, Naunyn Schmied. Arch. Pharmacol. 339 (1988), 53-61).
The value for the stimulated release S2 /S1 was calculated for the control as 0.69±0.09. The value decreases if a substance, such as, for example, the NMDA receptor antagonist CPP (3-(+)-2-carboxypiperazin-4-ylpropyl-1-phosphonic acid) known from the literature inhibited the NMDA-stimulated release. The inhibition of the stimulated release by preparations was calculated in percent, relative to the control value, and is indicated in Table 4.

[3] = test system: NMDA receptor-channel complex; experiment: Inhibition of 3H-MK-801 binding to membranes from rat brain; conditions: preparation concentration 50 μM; 3H-MK801 1 nM
Description: 3. Inhibition of ^3 H-MK-801 binding to membranes from rat brain
Test principle: MK-801 is a non-competitive antagonist which binds to ion channels coupled to NMDA receptors (Yoneda et al., Brain Res. 499 (1989), 305). Membranes from whole brain containing preparation and ^3 H-MK-801 are incubated in the test. The binding of ^3 H-MK-801 or its displacement by preparations (antagonists) is determined by radiochemical methods.
Experimental protocol: The binding experiments are carried out by the method of Reynolds et al. (Proc. Natl. Acad. Sci. USA, 84 (1987), 7744). Membrane preparation is first carried out according to Reynolds. Test samples are then pipetted, buffer and test preparation being initially introduced, then preincubated with protein for 2 minutes, and initiated using ^3 H-MK801. The membranes are thawed at 37° C., incubated at 37° C. for 10 minutes and homogenized for 15 seconds at half the maximum speed by means of a Polytron, then used in the cool state again. The incubation medium contains: pH 7.4 Hepes buffer 20 mM, preparations in three concentrations 5 μM, 10 μM and 50 μM, membranes 500 μg/ml of test solution, ^3 H-MK801 1 nM. Incubation is carried out at room temperature (23° C.) for 60 minutes and is then stopped by filtration. For this purpose, glass fiber paper No. 32 from Schleicher and Schull, which had been soaked in 0.03% polyethyleneimine for 30 minutes on the day before the experiment are counted in 4 ml of "Packard 199™" Scintillation fluid (Frankfurt). Tritium is determined by liquid scintillation counting using a Packard 1500.
Calculation of the results: The calculation of the binding in femtomol/mg of protein over a period of 60 min. was carried out using a small calculator (HP-97). If a substance antagonizes the binding, the value decreases. Substance activities are indicated in Table 5 as percentages, i.e. in % binding compared to the control. The activity of the comparison preparation CPP (3-(+)-2-carboxypiperazin-4-ylpropyl-1-phosphonic acid) at 5 μM, 10 μM and 50 μM is always determined to check the test.

[4] = test system: CA1 pyramidal cells of the hippocampus after forebrain ischemia; experiment: Neuroprotection after forebrain ischemia in the gerbil; conditions: 50 mg/kg p.o., 15 minutes before ischemia
Description: A 5-minutes' ischemia of the forebrain with subsequent recirculation is produced in 20 male Mongolian gerbils under halothane anesthesia by bilateral closure of the corotid artery by means of aneurysm clips. 7 days later, the animals are decapitated under halothane anesthesia, the brains are fixed by immersion in Carnoy solution and the extent of neuron damage in the CA1 region of the hippocampus is determined "blind" with the aid of a 5-stage histopathological score. The test substance is administered intraperitoneally or orally 15 minutes before ischemia to each group of 10 gerbils. One ischemic control group, also of 10 animals, is treated with the respective solvents per test substance.

NMDA-induced cramps = experiment: Inhibition of NMDA-induced cramps in the mouse; assay type: in vivo; conditions: po, 1 h
Description: 4. Inhibition of NMDA-induced-cramps in the mouse
The examples listed below show neuroprotective activity in that they antagonize the cramps induced by NMDA (N-methyl-(D)-aspartate). To this end, intravenous injections of 20-30 mg/kg of NMDA are carried out on a male NMRI (Naval Medical Research Institute) mice of 22-24 g body weight, which leads to stereotypes, clonic cramps and in the majority of cases to mortality. In order to investigate an NMDA-antagonist activity of the test substances, they are administered orally one hour before NMDA. The animals are then observed for the abovementioned symptoms for up to 60 min. The number of animals with clonic cramps and the incidence of mortality, expressed in percent change compared to the control group, is regarded as the evaluation criterion.

[5] = Toxicity (LD50) in the mouse; conditions: in vivo, iv
Source text: As the examples investigated show considerable differences in toxicity compared to the standard substances, the LD50 values are also listed in Table 6,

Structure (SMILES) | Stimulation of the 3H-D-aspartate absorption, Stimulation (%) [1] [%] | inhibition at 10 µM [2] [%] | Inhibition of 3H-MK-801 binding to the NMDA receptor-channel complex, inhibition (%) [3] [%] | Cell necroses (% change) ([4]; histopathological score CA1, treated versus control group) | Behavior score (% change) ([4]; treated versus control group) | inhibition in vivo at 50 mg/kg (NMDA-induced cramps; 50 mg/kg p.o., one hour before NMDA i.v., change compared to control group, read-out: Inhibition of convulsions) [%] | inhibition in vivo at 50 mg/kg (NMDA-induced cramps; read-out: Inhibition of mortality) [%] | LD50 [5] [mg/kg]
CC(C)[C@H]1CC[C@H](C)C[C@@H]1OC(=O)CCc1cc(C[N+](C)(C)C)on1 [Example 19, (+)-Menthyl 5-trimethylammoniomethylisoxazole-3-propionate iodide] | 25 | 16 | 16 | -25 | 0 |  |  | 
CC(C)[C@@H]1CC[C@@H](C)C[C@H]1OC(=O)CCc1cc(CNC(=O)[C@@H](N)Cc2ccccc2)on1 [Example 21, (-)-Menthyl 5-(L-phenylalanylamino)methylisoxazole-3-propionatehydrochloride] |  | 20 | 45 |  |  | 30 | 40 | 25 to 50
